Data: publication PMC2222791, “Induction of the oxidative catabolism of retinoid acid in MCF-7 cells” (British Journal of Cancer, 1997)
“And” between values parts separate entries of the source, which are not always exact repeats. Identical values can stand only once. Like-named read-outs stand apart in the source and are kept apart here. Starred links: 1 amine or outer side, 2 acyl side, 3 side chain; linkers in the order of their positions; H or OH if unused. Positions of bridges follow the written chain, without caps; N, C: chain ends. Non-standard residues stand in square brackets, D forms with d. Residues, ends and D or L forms follow the SMILES beside them. Chains are numbered I, II in the order given. Actinocin(9to1) = Cc1c2oc3c(C)ccc(C(=O)[*:1])c3nc-2c(C(=O)[*:2])c(N)c1=O; NMeV = CN[C@H](C(=O)O)C(C)C; Sar = CNCC(=O)O

Columns and labels:
[1] = tested on: RARs; design: method as in Duell et al, 1992; conditions: ref Duell et al, 1992; cited from earlier work
[2] = tested on: BA-HAN-IC; conditions: BA-HAN-IC cells; ref Ramp et al, 1994; cited from earlier work
[3] = tested on: MCF-7 cells
[4] = tested on: all-trans-RA catabolism in MCF-7 cells; test: Inhibition of induced all-trans-RA catabolism in MCF-7 cells; format: cell-based, human; conditions: for IC50: MCF-7 cells preincubated 24 h with 10^-6 M all-trans-RA, 10^-7 M [3H]all-trans-RA as substrate, mean ± s.d., three experiments in duplicate; for Activity in inhibiting all-trans-RA catabolism, times less than all-trans-RA: relative to all-trans-RA, from IC50 values of Table 2; for Inhibition of induced all-trans-RA catabolism, in words: induced MCF-7 cells, 10^-7 M [3H]all-trans-RA, CH55 up to 10 μM
[5] = tested on: HL-60 leukaemia cells; design: method as in Bollag and Holdener, 1992; Matsushima et al, 1992; conditions: ref Bollag and Holdener, 1992, Matsushima et al; cited from earlier work
[6] = tested on: MCF-7 cells; test: Viability of MCF-7 cells after preincubation (trypan blue); conditions: 24 h preincubation, varying concentrations, results not shown
[7] = tested on: RbTE cells and HL-60 leukaemia cells; design: method as in Jetten et al, 1987; conditions: ref Jetten et al, 1987; cited from earlier work
[8] = tested on: all-trans-RA catabolism in MCF-7 cells; test: Induction of all-trans-RA catabolism in MCF-7 cells by preincubation with retinoids (microcolumn assay); conditions: for RA catabolism (% of control): 24 h preincubation
[9] = tested on: rat liver homogenates; conditions: cited from earlier work
[10] = tested on: CRABP-II mRNA; test: Northern blotting for CRABP mRNA in MCF-7 cells; format: cell-based, human
Procedure: (§1) British Journal of Cancer (1997) 75(8), 1098-1104 ? […] Quantification was performed by optical densitometric scanning. […] Data are shown as mean ? s.d.

[11] = tested on: hamster liver microsomes; conditions: read-out: Km value of all-trans-RA catabolism, cited from earlier work
[12] = tested on: all-trans-RA catabolism in MCF-7 cells; test: Enzyme characteristics of induced all-trans-RA catabolism (Michaelis-Menten, Lineweaver-Burk); format: cell-based, human; conditions: MCF-7 cells preincubated 24 h with 10^-6 M all-trans-RA; substrate 5 x 10^-9 to 10^-6 M [3H]all-trans-RA; overall formation of polar metabolites; read-out: Estimated Km value of induced all-trans-RA catabolism
Procedure: as §1

[13] = tested on: rat Dunning R3327G tumour homogenates; conditions: cited from earlier work
[14] = tested on: F9 embryonal carcinoma cells; design: method as in Willams and Napoli, 1985; conditions: ref Willams and Napoli, 1985; cited from earlier work
[15] = read-out: Km value of all-trans-RA catabolism
[16] = ref Krekels et al, 1995, read-out: IC50 value for inhibition of all-trans-RA catabolism

## CC1=C(/C=C/C(C)=C/C=C/C(C)=C/C(=O)O)C(C)(C)CCC1O (centres unmarked) [4-hydroxy-RA]
[1]
  Potency in stimulating gene transcription, times less potent than RA: 2-10 times

## CC1=C(/C=C/C(C)=C/C=C/C(C)=C/C(=O)O)C(C)(C)CCC1O (stereo not drawn) [4-hydroxy-all-trans-RA]
[2]
  Differentiation-inducing activity relative to all-trans-RA: significantly weaker

## CC1=C(/C=C/C(C)=C/C=C/C(C)=C\C(=O)O)C(C)(C)CCC1=O [4-keto-13-cis-RA, 4-keto-13-cis-retinoic acid]
[3]
  Viability of the cells after preincubation: did not decrease viability
[4]
  IC50: 6.6 µM
  Activity in inhibiting all-trans-RA catabolism, times less than all-trans-RA: about 50 times

## CC1=C(/C=C/C(C)=C/C=C/C(C)=C/C(=O)O)C(C)(C)CCC1=O [4-keto-RA]
[1]
  Potency in stimulating gene transcription, times less potent than RA: 2-10 times

## CC1=C(/C=C/C(C)=C/C=C/C(C)=C/C(=O)O)C(C)(C)CCC1=O [4-keto-all-trans-RA, 4-Keto-all-trans-retinoic acid]
[3]
  Viability of the cells after preincubation: did not decrease viability
[4]
  IC50: 0.37 µM
  Inhibition of induced all-trans-RA catabolism, in words: activity similar to that of all-trans-RA
[2]
  Differentiation-inducing activity relative to all-trans-RA: significantly weaker

## CC1=C(/C=C/C(C)=C\C=C\C(C)=C\C(=O)O)C(C)(C)CCC1 [9-cis-RA, 9-cis-retinoic acid]
[5]
  Potency in inducing differentiation relative to all-trans-RA: equipotent to 10-fold as active
[4]; Homo sapiens, MCF7
  IC50: 1.89 µM
[4]
  Activity in inhibiting all-trans-RA catabolism, times less than all-trans-RA: about 15 times
[6]
  Viability of the cells after preincubation: did not decrease viability

## CC1=C(/C=C/C(C)=C/C=C/C(C)=C\C(=O)O)C(C)(C)CCC1 [13-cis-RA, 13-cis-retinoic acid]
[5]
  Potency in inducing differentiation relative to all-trans-RA: equipotent
[4]
  Activity in inhibiting all-trans-RA catabolism, times less than all-trans-RA: 5 times
[6]
  Viability of the cells after preincubation: did not decrease viability

## CC(C)(C)c1cc(C(=O)/C=C/c2ccc(C(=O)O)cc2)cc(C(C)(C)C)c1 [CH55, (E)-4-[3-(3,5-di-tert-butylphenyl)-3-oxo-l-propenyl]benzoic acid]
[4]
  IC50: > 10 µM
  Inhibition of induced all-trans-RA catabolism, in words: did not inhibit
[6]
  Viability of the cells after preincubation: did not decrease viability
[7]
  Biological activity, times higher than that of all-trans-RA: 20-25 times

## Cc1c2oc3c(C)ccc(C(=O)N[C@@H]4C(=O)N[C@H](C(C)C)C(=O)N5CCC[C@H]5C(=O)N(C)CC(=O)N(C)[C@@H](C(C)C)C(=O)O[C@@H]4C)c3nc-2c(C(=O)N[C@@H]2C(=O)N[C@H](C(C)C)C(=O)N3CCC[C@H]3C(=O)N(C)CC(=O)N(C)[C@@H](C(C)C)C(=O)O[C@@H]2C)c(N)c1=O [actinomycin D] (I: T[dV]P[Sar][NMeV] / II: T[dV]P[Sar][NMeV]; ester I:1-I:C, II:1-II:C; linker I:N-II:N via Actinocin(9to1))
[8]; actinomycin D 0.1 μg ml-1 with 10^-6 M all-trans-RA
  RA catabolism (% of control): 14.3 % of control
[8]; actinomycin D 1 μg ml-1 with 10^-6 M all-trans-RA
  RA catabolism (% of control): 11.7 % of control

## CC1=C(/C=C/C(C)=C/C=C/C(C)=C/C(=O)O)C(C)(C)CCC1 [all-trans-RA, All-trans-retinoic acid]
[9]; [15]
  Km: 4.3 µM
[8]; 10^-6 M all-trans-RA
  Preincubation period to maximal induction: 16 h and 16 to 24 h
[8]; 16 h induction with 10^-6 M all-trans-RA, then wash-out
  Time for induction to decrease to the constitutive level after wash-out: ≤ 24 h
[8]; preincubation with all-trans-RA
  Onset of induction detectable: ≤ 60 min
[10]; 10^-7 M all-trans-RA, 24 h
  Reduction in CRABP-II mRNA: 20%
[10]; CRABP-I mRNA, results not shown
  Expression of CRABP-I mRNA after treatment: remained low
[11]; ref Roberts et al (1980)
  Km: 1.1 µM
[11]; ref Van Wauwe et al (1988)
  Km: 12.5 µM
[4]
  Inhibition of induced all-trans-RA catabolism, in words: most active compound
[12]
  Km: 0.33 µM
[6]
  Viability of the cells after preincubation: did not decrease viability
[13]; [15]
  Km: 1.7 µM

## Clc1cccc(C(c2ccc3[nH]cnc3c2)n2ccnc2)c1.Clc1cccc(C(c2ccc3[nH]cnc3c2)n2ccnc2)c1.O=C(O)/C=C/C(=O)O.O=C(O)/C=C/C(=O)O.O=C(O)/C=C/C(=O)O (stereo not drawn) [liarozole-fumarate, 5-[3(chlorophenyl)(lH-imidazole-l-yl)methyl]-IH-benzimidazole (E)-2-butenedioate(2:3)]
[9]; [16]
  IC50: 0.14 µM
[4]
  Inhibition of induced all-trans-RA catabolism, in words: potency similar to that of all-trans-RA
[13]; [16]
  IC50: 0.26 µM

## CC1=C(/C=C/C(C)=C/C=C/C(C)=C/CO)C(C)(C)CCC1 [retinol, Retinol]
[4]
  Inhibition of induced all-trans-RA catabolism, in words: least active natural compound
[6]
  Viability of the cells after preincubation: did not decrease viability
[14]
  Activity in inducing differentiation relative to all-trans-RA: approximately 10%
